From US11986532B2 (Arvinas Operations, Inc., priority 2021, dated 2024)
Where two headings read alike, the source gives them in different places.

Molecular target: T1, BCL6 (Homo sapiens, UniProt P41182)
T1 construct: endogenous in cells; host or cells: T47D breast cancer epithelial cells
Assay: Immunofluorescence protocol for high content imaging of BCL6 (degradation) in T47D cells, 3 days compound treatment
Format: cell-based
Settings: for Dmax: read-out: Mean Dmax (%)** category; for DC50: read-out: Mean DC50 (nM)* category
Summary of the method: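 T47D, RPMI1640/10% FBS; cpd 11-pt 3-fold, top 0.1 or 1 μM final; 3 d, 37° C. Fix 4% PFA, perm 0.1% Triton, block 3% BSA; anti-BCL6 1:300 o/n 4° C; Alexa-488 2°, CellMask-647, Hoechst. Imaged 10×, 4 fields/well.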

[1] = T47D cells, 3 days compound treatment

| Structure (SMILES) | Dmax (T47D) [%] | DC50 [nM] | DC50 [1] [nM] | Dmax [1] [%] |
| --- | --- | --- | --- | --- |
| CNC(=O)COc1cc2cc(Nc3nc(N4CCC(O[C@H]5C[C@H](N6CCC7(CN(c8ccc9c(c8)C(=O)N(C8CCC(=O)NC8=O)C9=O)C7)C6)C5)CC4)ncc3Cl)ccc2n(C(C)C)c1=O (stereo partly shown) [Compound 338, 2-({6-[(5-chloro-2-{4-[(1r,3r)-3-{2-[2-(2,6-dioxopiperidin-3-yl)-1,3-dioxo-2,3-dihydro-1H-isoindol-5-yl]-2,6-diazaspiro[3.4]octan-6-yl}cyclobutoxy]piperidin-1-yl}pyrimidin-4-yl)amino]-2-oxo-1-(propan-2-yl)-1,2-dihydroquinolin-3-yl}oxy)-N-methylacetamide] | ≥ 70 | 10 to 50 |  |  |
| CNC(=O)COc1cc2cc(Nc3nc(N4CCC(CN5CCN(c6ccc7c(c6)C(=O)N(C6CCC(=O)NC6=O)C7=O)CC5)CC4)ncc3Cl)ccc2n(C(C)C)c1=O (stereo not shown) [Compound 404, 2-{[6-({5-chloro-2-[4-({4-[2-(2,6-dioxopiperidin-3-yl)-1,3-dioxo-2,3-dihydro-1H-isoindol-5-yl]piperazin-1-yl}methyl)piperidin-1-yl]pyrimidin-4-yl}amino)-2-oxo-1-(propan-2-yl)-1,2-dihydroquinolin-3-yl]oxy}-N-methylacetamide] | 50 to 70 | 10 to 50 |  |  |
| CNC(=O)COc1cc2cc(Nc3nc(N4CCC(O[C@H]5C[C@H](N6CCC7(c8ccc9c(c8F)CN(C8CCC(=O)NC8=O)C9=O)CC7C6)C5)CC4)ncc3Cl)ccc2n(C(C)C)c1=O (stereo partly shown) [Compound 283, 2-({6-[(5-chloro-2-{4-[(1r,3r)-3-{6-[2-(2,6-dioxopiperidin-3-yl)-4-fluoro-1-oxo-2,3-dihydro-1H-isoindol-5-yl]-3-azabicyclo[4.1.0]heptan-3-yl}cyclobutoxy]piperidin-1-yl}pyrimidin-4-yl)amino]-2-oxo-1-(propan-2-yl)-1,2-dihydroquinolin-3-yl}oxy)-N-methylacetamide] | ≥ 70 | < 10 |  |  |
| CNC(=O)COc1cc2cc(Nc3nc(N4CCC(OC5CN(C6CCN(c7ccc8c(c7F)CN(C7CCC(=O)NC7=O)C8=O)CC6)C5)CC4)ncc3Cl)ccc2n(C(C)C)c1=O (stereo not shown) [Compound 260, 2-({6-[(5-chloro-2-{4-[(1-{1-[2-(2,6-dioxopiperidin-3-yl)-4-fluoro-1-oxo-2,3-dihydro-1H-isoindol-5-yl]piperidin-4-yl}azetidin-3-yl)oxy]piperidin-1-yl}pyrimidin-4-yl)amino]-2-oxo-1-(propan-2-yl)-1,2-dihydroquinolin-3-yl}oxy)-N-methylacetamide] | 50 to 70 | < 10 |  |  |
| CNC(=O)COc1cc2cc(Nc3nc(N4CCC(C(=O)N5CCC6(CCN(c7ccc8c(c7)CN(C7CCC(=O)NC7=O)C8=O)C6)C5)CC4)ncc3Cl)ccc2n(C(C)C)c1=O (stereo not shown) [Compound 47, 2-[(6-{[5-chloro-2-(4-{7-[2-(2,6-dioxopiperidin-3-yl)-1-oxo-2,3-dihydro-1H-isoindol-5-yl]-2,7-diazaspiro[4.4]nonane-2-carbonyl}piperidin-1-yl)pyrimidin-4-yl]amino}-2-oxo-1-(propan-2-yl)-1,2-dihydroquinolin-3-yl)oxy]-N-methylacetamide] |  |  | < 10 | 50 to 70 |
| CNC(=O)COc1cc2cc(Nc3nc(N4CCC5(CCN(CC6(F)CCN(c7c(F)ccc8c7CN(C7CCC(=O)NC7=O)C8=O)CC6)CC5)CC4)ncc3Cl)ccc2n(C(C)C)c1=O (stereo not shown) [Compound 96, 2-{[6-({5-chloro-2-[9-({1-[2-(2,6-dioxopiperidin-3-yl)-5-fluoro-1-oxo-2,3-dihydro-1H-isoindol-4-yl]-4-fluoropiperidin-4-yl}methyl)-3,9-diazaspiro[5.5]undecan-3-yl]pyrimidin-4-yl}amino)-2-oxo-1-(propan-2-yl)-1,2-dihydroquinolin-3-yl]oxy}-N-methylacetamide] |  |  | < 10 | 50 to 70 |
| CNC(=O)COc1cc2cc(Nc3nc(N4CCC(O[C@H]5C[C@H](N6CCN(c7ccc8c(c7Cl)C(=O)N(C7CCC(=O)NC7=O)C8=O)CC6)C5)CC4)ncc3Cl)ccc2n(C(C)C)c1=O (stereo partly shown) [Compound 412, 2-({6-[(5-chloro-2-{4-[(1r,3r)-3-{4-[4-chloro-2-(2,6-dioxopiperidin-3-yl)-1,3-dioxo-2,3-dihydro-1H-isoindol-5-yl]piperazin-1-yl}cyclobutoxy]piperidin-1-yl}pyrimidin-4-yl)amino]-2-oxo-1-(propan-2-yl)-1,2-dihydroquinolin-3-yl}oxy)-N-methylacetamide] | 50 to 70 | 10 to 50 |  |  |
| CNC(=O)COc1cc2cc(Nc3nc(N4CCN(CC5C6CN(c7cccc8c7C(=O)N(C7CCC(=O)NC7=O)C8=O)CC56)CC4)ncc3Cl)ccc2n(C(C)C)c1=O (stereo not shown) [Compound 156, 2-{[6-({5-chloro-2-[4-({3-[2-(2,6-dioxopiperidin-3-yl)-1,3-dioxo-2,3-dihydro-1H-isoindol-4-yl]-3-azabicyclo[3.1.0]hexan-6-yl}methyl)piperazin-1-yl]pyrimidin-4-yl}amino)-2-oxo-1-(propan-2-yl)-1,2-dihydroquinolin-3-yl]oxy}-N-methylacetamide] |  |  | < 10 |  |
| CCNC(=O)COc1cc2cc(Nc3nc(N4CCC(CN5CCC6(CC5)CN(c5ccc7c(c5)C(=O)N(C5CCC(=O)NC5=O)C7=O)C6)CC4)ncc3Cl)ccc2n(C(C)C)c1=O (stereo not shown) [Compound 56, 2-{[6-({5-chloro-2-[4-({2-[2-(2,6-dioxopiperidin-3-yl)-1,3-dioxo-2,3-dihydro-1H-isoindol-5-yl]-2,7-diazaspiro[3.5]nonan-7-yl}methyl)piperidin-1-yl]pyrimidin-4-yl}amino)-2-oxo-1-(propan-2-yl)-1,2-dihydroquinolin-3-yl]oxy}-N-ethylacetamide] |  |  | ≥ 100 | ≥ 70 |
| CNC(=O)COc1cc2cc(Nc3nc(N4CCC(CN5CCC6(CC5)CN(c5cc(F)c7c(c5)CN(C5CCC(=O)NC5=O)C7=O)C6)CC4)ncc3Cl)ccc2n(C(C)C)c1=O (stereo not shown) [Compound 80, 2-{[6-({5-chloro-2-[4-({2-[2-(2,6-dioxopiperidin-3-yl)-7-fluoro-1-oxo-2,3-dihydro-1H-isoindol-5-yl]-2,7-diazaspiro[3.5]nonan-7-yl}methyl)piperidin-1-yl]pyrimidin-4-yl}amino)-2-oxo-1-(propan-2-yl)-1,2-dihydroquinolin-3-yl]oxy}-N-methylacetamide] |  |  | < 10 | 50 to 70 |
| CNC(=O)COc1cc2cc(Nc3nc(N4CCC(O[C@H]5C[C@H](N6CCC(F)(c7ccc8c(c7)C(=O)N(C7CCC(=O)NC7=O)C8=O)CC6)C5)CC4)ncc3Cl)ccc2n(C(C)C)c1=O (stereo partly shown) [Compound 276, 2-({6-[(5-chloro-2-{4-[(1r,3r)-3-{4-[2-(2,6-dioxopiperidin-3-yl)-1,3-dioxoisoindol-5-yl]-4-fluoropiperidin-1-yl}cyclobutoxy]piperidin-1-yl}pyrimidin-4-yl)amino]-1-isopropyl-2-oxoquinolin-3-yl}oxy)-N-methylacetamide] | 50 to 70 | 10 to 50 |  |  |
| CNC(=O)COc1cc2cc(Nc3nc(N4CCC(O[C@H]5C[C@H](N6CCN(c7cc8c(cc7OC)C(=O)N(C7CCC(=O)NC7=O)C8=O)CC6)C5)CC4)ncc3Cl)ccc2n(C(C)C)c1=O (stereo partly shown) [Compound 423, 2-({6-[(5-chloro-2-{4-[(1r,3r)-3-{4-[2-(2,6-dioxopiperidin-3-yl)-6-methoxy-1,3-dioxo-2,3-dihydro-1H-isoindol-5-yl]piperazin-1-yl}cyclobutoxy]piperidin-1-yl}pyrimidin-4-yl)amino]-2-oxo-1-(propan-2-yl)-1,2-dihydroquinolin-3-yl}oxy)-N-methylacetamide] | ≥ 70 | < 10 |  |  |
| CNC(=O)COc1cc2cc(Nc3nc(N4CCC(CN5CCC6(CN(c7cccc8c7C(=O)N(C7CCC(=O)NC7=O)C8=O)C6)C(F)(F)C5)CC4)ncc3Cl)ccc2n(C(C)C)c1=O (stereo not shown) [Compound 91, 2-{[6-({5-chloro-2-[4-({2-[2-(2,6-dioxopiperidin-3-yl)-1,3-dioxo-2,3-dihydro-1H-isoindol-4-yl]-5,5-difluoro-2,7-diazaspiro[3.5]nonan-7-yl}methyl)piperidin-1-yl]pyrimidin-4-yl}amino)-2-oxo-1-(propan-2-yl)-1,2-dihydroquinolin-3-yl]oxy}-N-methylacetamide] |  |  | < 10 | 50 to 70 |
| CNC(=O)COc1cc2cc(Nc3nc(N4CCC(O[C@H]5C[C@H](N6CCC(c7cc(F)c8c(c7F)CN([C@H]7CCC(=O)NC7=O)C8=O)CC6)C5)CC4)ncc3Cl)ccc2n(C(C)C)c1=O [Compound 188, 2-({6-[(5-chloro-2-{4-[(1r,3r)-3-(4-{2-[(3S)-2,6-dioxopiperidin-3-yl]-4,7-difluoro-1-oxo-2,3-dihydro-1H-isoindol-5-yl}piperidin-1-yl)cyclobutoxy]piperidin-1-yl}pyrimidin-4-yl)amino]-2-oxo-1-(propan-2-yl)-1,2-dihydroquinolin-3-yl}oxy)-N-methylacetamide] |  |  | < 10 | ≥ 70 |
| CNC(=O)COc1cc2cc(Nc3nc(N4CCC(CN5CC(N6CCC(c7ccc8c(c7)CN(C7CCC(=O)NC7=O)C8=O)C(F)C6)C5)CC4)ncc3Cl)ccc2n(C(C)C)c1=O (stereo not shown) [Compound 217, 2-({6-[(5-chloro-2-{4-[(3-{4-[2-(2,6-dioxopiperidin-3-yl)-1-oxo-2,3-dihydro-1H-isoindol-5-yl]-3-fluoropiperidin-1-yl}azetidin-1-yl)methyl]piperidin-1-yl}pyrimidin-4-yl)amino]-2-oxo-1-(propan-2-yl)-1,2-dihydroquinolin-3-yl}oxy)-N-methylacetamide] | 50 to 70 | < 10 |  |  |
| CNC(=O)COc1cc2cc(Nc3nc(N4CCC(O[C@H]5C[C@H](N6CCCC7(CCN(c8ccc9c(c8)CN(C8CCC(=O)NC8=O)C9=O)C7)C6)C5)CC4)ncc3Cl)ccc2n(C(C)C)c1=O (stereo partly shown) [Compound 356, 2-({6-[(5-chloro-2-{4-[(1r,3r)-3-{2-[2-(2,6-dioxopiperidin-3-yl)-1-oxo-2,3-dihydro-1H-isoindol-5-yl]-2,7-diazaspiro [4.5]decan-7-yl}cyclobutoxy]piperidin-1-yl}pyrimidin-4-yl)amino]-2-oxo-1-(propan-2-yl)-1,2-dihydroquinolin-3-yl}oxy)-N-methylacetamide] | ≥ 70 | < 10 |  |  |
